# Data taken from patent US20240307409A1, “ARGININE METHYLTRANSFERASE INHIBITOR AND USE THEREOF” (Cytosinlab Therapeutics Co., Ltd., priority 2021, published 2024).
# Target: T1, PRMT4 (Homo sapiens, UniProt Q86X55)
# T1 sequence (Q86X55 1-608): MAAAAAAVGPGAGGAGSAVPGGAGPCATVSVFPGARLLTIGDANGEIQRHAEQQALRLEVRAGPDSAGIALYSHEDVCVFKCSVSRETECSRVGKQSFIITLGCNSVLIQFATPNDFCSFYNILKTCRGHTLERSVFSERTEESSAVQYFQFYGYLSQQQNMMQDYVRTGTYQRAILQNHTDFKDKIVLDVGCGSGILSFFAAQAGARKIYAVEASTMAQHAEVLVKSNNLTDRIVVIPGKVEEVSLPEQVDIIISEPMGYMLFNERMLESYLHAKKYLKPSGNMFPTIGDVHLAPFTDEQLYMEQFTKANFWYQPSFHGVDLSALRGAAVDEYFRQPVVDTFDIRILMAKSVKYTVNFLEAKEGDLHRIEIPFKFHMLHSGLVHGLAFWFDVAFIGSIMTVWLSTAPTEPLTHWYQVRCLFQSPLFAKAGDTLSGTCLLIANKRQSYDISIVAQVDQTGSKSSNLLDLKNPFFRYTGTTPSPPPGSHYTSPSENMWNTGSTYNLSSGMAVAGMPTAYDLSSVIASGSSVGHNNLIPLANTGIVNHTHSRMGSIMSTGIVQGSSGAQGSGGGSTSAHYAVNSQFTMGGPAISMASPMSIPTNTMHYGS
# Assay: PRMT panel selectivity test, PRMT4
# Format: biochemical
# Procedure: [The procedure below names another target; the source says it served here with some conditions changed.] This experiment was assayed in a buffer prepared on the same day consisting of 10 mMTirs-HCl (pH=8.0), […] and 1 mM DTT. The compounds were prepared to the highest inhibitor concentration ultimately required in the 100× reaction with 100% DMSO and then transferred to one well of a 384-well Echo plate (Echo-eligible 384-well polypropylene microplates 2.0, transparent, flat-bottomed) and sequentially diluted in the next well with a 3-fold dilution of 100% DMSO, and so on, with a total of 10 concentrations based on Precision. 100% DMSO was added to two empty wells as control well without compound and control well without enzyme in the same 384-well Echo plate. 100 nL of compound was transferred from each well of the 384-well Echo plate to a 384-well assay plate (OptiPlate (384-well, white)) via the Echo 550 liquid processor. For wells with compounds and control well without compound, a mixture containing PRMT1 enzyme (5 uL) was added to the 384-well assay plate. For control well without enzyme, a mixture containing test buffer (5 uL) was added instead. The compounds were allowed to incubate with PRMT3 for 15 minutes at room temperature, and then a mixture containing cold SAM and peptide (5 uL) was added to start the reaction (final volume=10 uL). The final concentrations of the components were as follows: 0.1 nM for PRMT3, 15 uM for SAM, 0.05 uM for peptide, and 1% DMSO. After 60 min of incubation at room temperature, the reaction was terminated by the addition of donor and acceptor magnetic beads (15 uL) with a final concentration of 10 ug/mL diluted with AlphaLISA Epigenetics Buffer. The 384-well assay plate was incubated at room temperature for 60 min and the relative fluorescence units (RFU) were nextly determined using a multi-mode plate reader in Alpha mode (Ex680/Em615).
# Curve fitting: the raw data were copied from Reader and the inhibition values were calculated in Excel by equation (1). […]
row,IC50,Structure (SMILES)
1,< 50 nM,CNCCN(C)Cc1ccccc1C1CCN(c2ccccc2)CC1 [P023]
2,50 to 500 nM,CNCCN(C)Cc1ncccc1N1CCc2ccccc2CC1 [P118]
3,< 50 nM,CCOCC1(COCC)CCC(c2cccnc2CN(C)CCNC)CC1 [P207]
